Measurements as given in a melting point compilation (Tetko et al.; mined from patent text by program, amines drawn as free bases though some values may be those of a salt).

| SMILES | melting point |
| --- | --- |
| COc1cccc(NC(=S)Nc2cscc2C)c1N | 148 to 153 °C |
| Cc1nc2ccc3c(c2o1)OC(CO)CO3 (stereo not given) | 120 °C |
| OCC1OC(c2c(Cl)nc3cc(Cl)c(Cl)cn23)C(O)C1O (stereo not given) | 239 to 240 °C |
| O=C1Cc2c(ccc3c(CCC4CCN(Cc5ccccc5)CC4)noc23)N1 | 188 to 189 °C |
| COc1cc2c(cc1S(=O)(=O)c1ccc(F)cc1)CCN(C)CC2 | 129 to 130 °C |
| O=C1NCc2ccccc2N1C1CCNCC1 | 153 to 155 °C |
| O=S(=O)(c1ccccc1)c1c[nH]c2c(C3CCNCC3)cccc12 | 186 to 190 °C |
| CCOC(=O)Cc1ccc(Oc2ccc([N+](=O)[O-])cc2)cc1 | 70.5 to 73 °C |
| CCCc1nc2c(N)nc3cc(OCCOCCOc4ccc5c(c4)nc(N)c4nc(CCC)sc45)ccc3c2s1 | 186 to 189 °C |
| COC(=O)c1cc(C2CCCO2)c(C(F)(F)F)cc1N (stereo not given) | 131 to 136 °C |
| COC(=O)c1cc(N(CCBr)CCBr)c(S(C)(=O)=O)cc1[N+](=O)[O-] | 161 to 162 °C |
| C=C(C)Cn1cnc2c(N)nc3ccccc3c21 | 290 to 294 °C |
| Cc1c2c(c(-c3ccccc3)n1C)N(C)C(=O)CN=C2c1ccccc1 | 232 to 234 °C |
| CCc1nn2c(N)c3c(nc2c1S(=O)(=O)c1ccccc1)CCC3 | > 230 °C |
| Cc1cccc2c(=O)cc(O)c(=O)[nH]c12 | 184 to 186 °C |
| OCCc1ccc(Nc2ncc3c(n2)-c2ccccc2C(c2ccc(F)c(F)c2)C3)cc1 (stereo not given) | 170 to 172 °C |
| Cc1ccc(I)c(CO)c1 | 82 to 85 °C |
| O=C1C(c2ccccc2)=C(c2ccccc2)C(c2ccccc2)C1c1ccccc1 (stereo not given) | 162 to 163 °C |

| SMILES | melting point |
| --- | --- |
| OCc1ccc(-c2ccc(F)cn2)cc1 | 100 to 101 °C |
| CC1(CNC(=O)C(F)(F)F)CN(c2c(F)cc3c(=O)c(C(=O)O)cn(C4CC4)c3c2F)C1 | 232 to 237 °C |
| COc1ccc(Cn2nnc(-c3ccc(C(F)(F)F)cc3F)c2N)cc1 | 153 to 154 °C |
| CN(C)C1(c2ccccc2)CCC(CNC(=O)N2CCC(c3c[nH]c4ccc(Cl)cc34)CC2)CC1 (stereo not given) | 140 to 143 °C |
| Clc1ccc(-c2ccc(Br)cc2)cc1 | 81 to 82 °C |
| Cc1ccc(S(=O)(=O)OCC2COc3ccc(N)c(C=NO)c3O2)cc1 (stereo not given) | 164 to 166 °C |
| O=C1c2cc(OCc3ccc4ccccc4n3)ccc2OCC1Oc1cccnc1 (stereo not given) | 174 to 175 °C |
| Clc1ccc(N2CCN(c3ccccn3)CC2)nn1 | 195 °C |
| O=S(CBr)c1ccc(Cl)cc1 (stereo not given) | 100 °C |
| COc1cc(C(=O)N(C(C)C)C2CCCCC2)ccc1Br | 104 to 107 °C |
| Cc1ccc(-c2ncc(N3CCC(O)CC3)nc2-c2ccc(C)cc2)cc1 | 176 to 178 °C |
| CC(=C(C#N)C(=O)Nc1ccccc1C(C)C)N(C)C | 74 to 78 °C |
| Cc1[nH]c(=O)[nH]c1C(=O)C=Cc1ccccc1 | 299 °C |
| COc1ncc(OC)c(NC#N)n1 | 164 to 171 °C |
| c1ccc(CCCn2c(-c3ccc4c(c3)OCO4)nc3ccccc32)cc1 | 99.8 to 100 °C |
| c1ccc2c(c1)nc(-c1ccc3c(c1)OCO3)n2Cc1ccc2c(c1)OCO2 | 173 to 174 °C |
| CN(C)C(=O)n1oc(CCl)c(Cl)c1=O | 107 to 108 °C |
| O=C(NC[C@H]1CC[C@@H](Oc2ccc(F)cc2)CC1)c1ccc(O)cc1 | 170 °C |

More lines, now with the values ahead:

| melting point | SMILES |
| --- | --- |
| 154 to 155 °C | COc1ccccc1C(=O)NCCc1ccc(CC(=O)O)cc1 |
| 265 °C | COc1cc(-c2ccc(Cl)cc2)nc2c(C(=O)Nc3cccc(S(C)(=O)=O)c3)cnn12 |
| 248 to 251 °C | COc1ccc(C(=O)Nc2ccccc2)c2c1OCC2CC(=O)O (stereo not given) |
| 159 to 160 °C | CCNC(=O)c1c(-c2ccccc2)cccc1[Si](C)(C)C |
| 213 to 214 °C | CCc1nc2c(N)nc3cc(OS(C)(=O)=O)ccc3c2n1CCOc1ccccc1 |
| 163 to 165 °C | CCOC(=O)c1sc(-n2ccc(OC)cc2=O)nc1C |
| 103 to 104 °C | C=CC(C)(C)CC(=O)C(=O)Nc1ccc2c(c1)C(=O)OC2 |
| 226 to 230 °C | CC(O)CNc1ccc(NC(=O)n2ccc3cc(Oc4cc(CC(N)=O)ncn4)ccc32)cc1C(F)(F)F (stereo not given) |
| 150 to 151 °C | O=C(NCCSSCCNC(=O)c1ccc(OC(F)(F)F)cc1)c1ccc(OC(F)(F)F)cc1 |
| 241 °C | COc1cc2c(cc1-c1cc(F)ccc1F)NC(=O)CC(c1cccc(-n3ccnn3)c1)=N2 |
| 78.5 to 80 °C | COC(=O)CCC(C#N)(CCC(=O)OC)c1cccc(Cl)c1 |
| 241 to 244 °C | CNC(=O)c1ccc(N2CCN(Cc3cc4c(c(OC)c3)OC(C)C(=O)N4)CC2)c(F)c1 (stereo not given) |
| 249 to 250 °C | CC(C)(Cc1ccccc1)C(NC(=O)COc1ccccc1)Nc1c(Nc2cccnc2)c(=O)c1=O (stereo not given) |
| 56 to 58 °C | CCn1cccc1Cc1cccc(NC(N)=O)c1 |
| 136 to 138 °C | CN1CCN(c2cc(Cl)cc3c2c(=O)n(CCc2ccccc2)c(=O)n3Cc2ccccc2)CC1 |
| 121 to 125 °C | COc1cc(F)ccc1-c1ccc(S(=O)(=O)N2c3ccccc3CC2C(=O)NCc2ccccc2NCCC(=O)O)cc1 (stereo not given) |
| 115 to 116 °C | CCCCCCNC(=O)[C@@H](NC(=O)[C@H](CC(C)C)NC(=O)OC(C)(C)C)C(C)C |

| melting point | SMILES |
| --- | --- |
| 144 to 146 °C | CCOC(=O)c1cc(C)c(Cl)nc1Nc1ccc(I)cc1 |
| 201 to 203 °C | COc1ccc2nc(-c3cc(C)c(OCCN4CCCC4)c(C)c3)[nH]c(=O)c2c1 |
| > 285 °C | CCn1c(=O)c2[nH]c(/C=C/c3cc(OC)c(OC)cc3Br)nc2n(CC)c1=O |
| 171 °C | O=C1CC=C(c2ccccc2Cl)c2cc(Cl)ccc2N1 |
| 80 to 83 °C | COc1ccc(C(=O)N2C(=O)CCC2CCC(=O)OCc2ccccc2)cc1 (stereo not given) |
| 129 to 131 °C | CCC(Br)=C1NC(=O)N(C(C(=O)Nc2cc(NC(=O)C(CC)Oc3ccc(C(C)(C)CC)cc3C(C)(C)CC)ccc2Cl)C(=O)C(C)(C)C)C1=O (stereo not given) |
| 73 to 75 °C | CCN(CCc1c[nH]c2ccccc12)C(=O)CCCC(=O)OC |
| 235 °C | CC(C)(C)c1cc(/C=C/c2nnc(S(C)(=O)=O)s2)cc(C(C)(C)C)c1O |
| 90 to 95 °C | CCc1nc2c(C)cc(C)nc2n1Cc1ccc2oc(-c3ccccc3NS(=O)(=O)C(F)(F)F)c(Br)c2c1 |
| > 260 °C | CC(=O)c1c(-c2ccnc3ccccc23)[nH]c(-c2ccnc3ccccc23)c1C |
| 146 to 148 °C | CC(C)(C)c1ccc(S(=O)(=O)Nc2ncnc(OCCO)c2Br)cc1 |
| 156 °C | CC(=O)Nc1ccc2c(c1)CCC(CO)O2 (stereo not given) |
| 223 to 225 °C | O=C(Oc1cc([N+](=O)[O-])ccc1[N+](=O)[O-])c1cc2ccccc2oc1=O |
| 70 °C | CC(OCc1cc2cc(C(F)(F)F)ccc2n1S(=O)(=O)c1ccc2c(c1)OCCO2)C(=O)O (stereo not given) |
| 193 to 194 °C | CC(C)n1nc(-c2cc(C(=O)NCc3ccccn3)cnc2-c2ccccc2)ccc1=O |
| 195 to 196 °C | O=C1C(=O)c2ccccc2C2=C1SCC1(CCN(CC(O)Cc3ccc(Cl)cc3)CC1)O2 (stereo not given) |
| 194 to 195 °C | CCOC(=O)C1=C(C)NC(C)=C(C(=O)OCCN2C(=O)c3ccccc3C2=O)C1c1cccc([N+](=O)[O-])c1 (stereo not given) |
